Earlier results in patent US12390476B2, “Multiphasic contraceptive regimen for oral combination drug formulation of progestin and estrogen” (priority 2011, dated 2025).

Conditions: compared to gestodene, desogestrel and drospirenone

## C#C[C@]1(O)CC[C@H]2[C@@H]3CCC4=CC(=O)CC[C@@H]4[C@H]3CC[C@@]21CC [LNG, levonorgestrel]
  incidence of venous thromboembolism (VTE): lowest incidence
